Assay results: patent publication EP4775577A1, “RAS INHIBITOR” (Tyligand Bioscience (Shanghai) Limited, priority 2023, dated 2025)
Read-outs that look alike come from different tables or passages of the source.

Experiments:
[1] = test system: KRAS G12D mutant AGS cells; experiment: Proliferation inhibition of AGS cells, CellTiter-Glo assay; type: cell-based, human; conditions: 3 days, CTG, read-out: AGS IC50/nM
Protocol: AGS cells (Nanjing Kebai Biotechnology Co., Ltd., catalog number CBP60476, adherent, culture medium (F12K Nutrient Mixture+10% FBS (GIBCO, Cat#10091-148) were cultured at 37°C, 5% CO2, and 95% humidity at a density of 1500 cells/well. Cells in the logarithmic growth phase were harvested and counted using a Countstar automated cell counter based on the classic trypan blue staining method to ensure cell viability was above 90%. The cell concentration was adjusted, and 80 µL of cell suspension was added to each 96-well clear flat-bottomed, black-walled plate (Greiner, Cat# 655090). The cells in the 96-well plates were then cultured at 37°C and 5% CO2.
Drug preparation for IC50 assay: A 5-fold drug solution was prepared using culture medium. 20 µL of the drug solution was added to each well of a 96-well plate seeded with cells to achieve a working concentration of up to 10 µM, with a 3 × dilution, and a total of 9 concentrations. 2 replicate wells for each drug concentration were set. The cells in the drug-treated 96-well plates were cultured at 37°C and 5% CO2 for additional 3 days and then CTG assay were performed.
The cell plate was equilibrated to room temperature for 30 minutes and the CTG reagent (CellTiter-Glo® Luminescent Cell Viability Assay (Promega, Cat# G7573)) was thawed. 50 µL of CTG solution was added to each well and the plate was shaken on an orbital shaker for 2 minutes to lyse the cells. The cell plate was placed at room temperature for 10 minutes to stabilize the cryo-luminescence signal and the cryo-luminescence value was read (EnVision® Multifunctional microplate reader, PerkinElmer #2105).
(§1) Data was analyzed using GraphPad Prism software. The dose-response-inhibition equation was used to fit the data to obtain the dose-response curve, and the IC50 value (nM) was calculated accordingly. [formula]

[2] = test system: KRAS G12V mutant NCI-H727 cells; experiment: Proliferation inhibition of NCI-H727 cells, 3D CellTiter-Glo assay (Method B); type: cell-based, human; conditions: Method B, 3D culture with 0.65% methylcellulose, 5 days, CTG, read-out: NCI-H727 IC50/nM
Protocol: NCI-H727 cells (Nanjing Kebai Biotechnology Co., Ltd., catalog number CBP60182, adherent, culture medium RPMI-1640+10%FBS (GIBCO, Cat#10091-148)) were cultured at 37°C, 5% CO2, and 95% humidity.
3D cell viability assay: Cells in the logarithmic growth phase were harvested and counted using a platelet counter. Cell viability was assessed using the trypan blue exclusion method to ensure a viability of over 90%. The 3D cell culture medium was prepared by adding 1% MC (methylcellulose, Sigma, Cat#M0512) to RPMI-1640 medium and 10% FBS. The cell concentration was adjusted to approximately 25,000 cells/mL using the 3D medium, and the methylcellulose (MC) content was set to 0.65%. Then, 80 µL of cell suspension was added to each 96-well clear, flat-bottomed, black-walled plate (Greiner, Cat# 655096). The cells in the 96-well plates were cultured overnight at 37°C and 5% CO2.
Drug preparation for IC50 assay: A 5-fold drug solution was prepared using culture medium. 20 µL of the drug solution was added to each well of a 96-well plate seeded with cells to achieve a working concentration of up to 10 µM, with a 3× dilution, and 9 concentrations. 2 replicate wells for each drug concentration were set. The cells in the drug-treated 96-well plates were cultured at 37°C and 5% CO2 for additional 5 days, then CTG assay (CellTiter-Glo® Luminescent Cell Viability Assay (Promega, Cat#G7573)) were performed.
The cell plate was equilibrated to room temperature for 30 minutes and the CTG reagent was thawed. 50 µL of CTG solution was added to each well for detection and the plate was shaken on an orbital shaker for 5 minutes to lyse the cells. The cell plate was then placed at room temperature for 25 minutes to stabilize the cryo-luminescence signal, and the cryo-luminescence value was read (EnVision® multi-plate reader, PerkinElmer#2105).
as §1

| Compound | IC50 [1] [nM] | IC50 [2] [nM] | IC50 ([1]; Homo sapiens, AGS, 72 h) [nM] | IC50 ([2]; Homo sapiens, NCI-H727, 120 h) [nM] |
| --- | --- | --- | --- | --- |
| CN1CC/C(=C\F)[C@](C)(COc2nc(N3CCCn4nc(C(=O)N(C)C)cc4C3)c3cc(Cl)c(-c4c(F)ccc5sc(N)c(C#N)c45)c(F)c3n2)C1 (atropisomer, axis not shown; (Sa)) [Example 93B, (Sa)-5-(7-(2-amino-3-cyano-5-fluorobenzo[b]thiophene-4-yl)-6-chloro-8-fluoro-2-(((S,E)-4-(fluoromethylene)-1,3-dimethylpiperidine-3-yl)methoxy)quinazoline-4-yl)-N,N-dimethyl-5,6,7,8-tetrahydro-4H-pyrazolo[1,5-a][1,4]diazepine-2-formamide·formate] | 178 | 191 |  |  |
| CN1CC/C(=C\F)[C@](C)(COc2nc(N3CCCn4nc(C(=O)N(C)C)cc4C3)c3cc(Cl)c(-c4cccc5sc(N)c(C#N)c45)c(F)c3n2)C1 (atropisomer, axis not shown; (Sa)) [Example 94A, (Sa)-5-(7-(2-amino-3-cyanobenzo[b]thiophene-4-yl)-6-chloro-8-fluoro-2-(((S,E)-4-(fluoromethylene)-1,3-dimethylpiperidine-3-yl)methoxy)quinazoline-4-yl)-N,N-dimethyl-5,6,7,8-tetrahydro-4H-pyrazolo[1,5-a][1,4]diazepine-2-formamide·formate] |  |  | 3.3 | 9 |
| CN1CC/C(=C\F)[C@](C)(COc2nc(N3CCCn4nc(C(=O)N(C)C)cc4C3)c3cc(/C=C\F)c(-c4cccc5sc(N)c(C#N)c45)c(F)c3n2)C1 (single isomer, unassigned) [Example 112B] |  |  | 5.3 | 11 |
| CN1CC/C(=C\F)[C@](C)(COc2nc(N3CCCn4nc(C(=O)N(C)C)c(C#N)c4C3)c3cc(C(F)(F)F)c(-c4cccc5sc(N)c(C#N)c45)c(F)c3n2)C1 (single isomer, unassigned) [Example 119B] |  |  | < 1.5 | 6.9 |
| CN1CC/C(=C\F)[C@](C)(COc2nc(N3CCCn4nc(C(=O)N(C)C)c(Cl)c4C3)c3cc(C4CC4)c(-c4c(F)ccc5sc(N)c(C#N)c45)c(F)c3n2)C1 (single isomer, unassigned) [Example 161A] | 2.4 |  |  | 4.3 |
| CCc1cc2c(N3Cc4cc(C(=O)N(C)C)nn4CC[C@@H]3C)nc(OC[C@]3(C)CN(C)CC/C3=C\F)nc2c(F)c1-c1c(C)ccc2[nH]ncc12 (single isomer, unassigned) [Example 172A] |  |  | 199 | 419 |
| [2H]C([2H])([2H])N1CC/C(=C\F)[C@](C)(COc2nc(N3Cc4c(Cl)c(C(=O)N(C)C)nn4CC[C@@H]3C)c3cc(CC)c(-c4c(F)ccc5sc(N)c(C#N)c45)c(F)c3n2)C1 (single isomer, unassigned) [Example 182A] |  |  | 2 | < 1.5 |
| [2H]C([2H])([2H])N1CC/C(=C\F)[C@](C)(COc2nc(N3Cc4c(C)c(C(=O)N(C)C)nn4CC[C@@H]3C)c3cc(CC)c(-c4c(F)ccc5sc(N)c(C#N)c45)c(F)c3n2)C1 (single isomer, unassigned) [Example 183A] |  |  | < 1.5 | < 1.5 |
| [2H]C([2H])([2H])N1CC/C(=C\F)[C@](C)(COc2nc(N3Cc4c(C#C)c(C(=O)N(C)C)nn4CC[C@@H]3C)c3cc(CC)c(-c4c(F)ccc5sc(N)c(C#N)c45)c(F)c3n2)C1 (single isomer, unassigned) [Example 184A] |  |  | 3.4 | 4.3 |
| [2H]C([2H])([2H])N1CCC(=CF)C(C)(COc2nc(N3Cc4cc(C(=O)N(C([2H])([2H])[2H])C([2H])([2H])[2H])nn4CCC3C)c3cc(CC)c(-c4c(F)ccc5sc(N)c(C#N)c45)c(F)c3n2)C1 (single isomer, unassigned) [Example 185A] |  |  | < 1.5 | < 1.5 |
| Cc1cc(N)nc(-c2c(Cl)cc3c(N4Cc5cc(C(=O)N(C)C)nn5CCC4C)nc(OCC4(C)CN(C)CCC4=CF)nc3c2F)c1C(F)(F)F (single isomer, unassigned) [Example 213A] |  |  | 49.6 | 43.1 |
